According to US4558033A, “Potentiation of the effects of insulin by peptides” (Amgen, priority 1983, dated 1985):
No end group written: not given here.

Tests used:
[1] = tested on: mice ob/ob, ob/+, db/db, db/m; test: Plasma glucose after glucose load, fixed insulin and DP doses, normal and genetically abnormal mice (Example 4); assay type: in vivo; conditions: for Plasma Glucose at 60 min: i.p. glucose, insulin 0.001 mU/10g
Method: (§1) A study was conducted to ascertain the effects of fixed amounts of deletion peptide and insulin on various animal models, including rats and normal and genetically abnormal mice.
(§2) Animals in test groups of five each were employed in these procedures. Sprague-Dawley rats weighed approximately 200 grams; homozygous genetically abnormal mice (ob/ob and db/db) had weights in the range of 40 to 60 grams; and heterozygous normal mice (ob/+ and db/m) all weighed approximately 25 grams. Glucose was administered intraperitoneally at a dosage of 0.05 ml/10g of a solution containing 135 mg/ml glucose, except for one group of rats which were given an oral dose of glucose comprising 1 ml of 270 mg/ml glucose solution. Insulin was administered at a dose of 0.001 mU/10g and deletion peptide was simultaneously intraperitoneally administered at a dose of 5.0 μg/10g.
(§3) The results of plasma glucose determinations performed on blood drawn one hour after administration of test materials are set out in Table III, below.

[2] = tested on: insulin-stimulated fat cells of older obese rats; conditions: in vitro; cited from earlier work
normal dog = conditions: portal infusion 1 μg/kg/min
Method: Two studies were conducted to determine the effects of deletion peptide on dogs.

[3] = Ongoing studies of deletion peptide biological activities in in vivo systems; conditions: preliminary evidence
Description: The above examples establish that deletion peptide alone has no immediate and direct hypoglyamic effect within the protocols of investigations conducted to date. […] Further, certain of these effects appear to be shared by peptides disclosed and claimed in co-owned, co-pending, concurrently-filed U.S. Patent application Ser. No. 501,024, by the inventor herein and co-inventor Theodore Jones, entitled "Biologically Active Peptides Structurally Related to Regions Within Growth Hormones," the disclosures of which are incorporated by reference herein.

[4] = tested on: rats given an intraperitoneal glucose load; test: Plasma glucose in rats given an intraperitoneal glucose load, DP with and without insulin (Example 2); assay type: in vivo, Sprague-Dawley rats; conditions: for Plasma Glucose at 60 minutes: i.p. glucose load
Method: (§4) A study was conducted to determine the effect on plasma glucose of deletion peptide, with and without insulin, in rats given an intraperitoneal glucose load. Groups of five male Sprague-Dawley rats were involved in this study. All weighed between 160 to 168 grams and were maintained on standard laboratory diet until 18 hours prior to the test procedures. Test groups of fasted rats received, in rapid succession, 1.0 ml of 0.75 M glucose, 10 mU of insulin in admixture with 1% bovine serum albumin (BSA) in normal saline (pH 7.4), and either 0, 25, 50 or 100 μg doses of deletion peptide. Control groups of rats received glucose and 1% BSA in saline with no insulin but with similarly varying levels of deletion peptide. Plasma glucose determinations were made on blood drawn one hour after administration of test substances and the results (means, ± standard errors) of these determinations are set out in Table I below.

[5] = tested on: rats given an intraperitoneal glucose load; test: Plasma glucose in rats given an intraperitoneal glucose load, increasing insulin doses with and without 100 μg DP (Example 3); assay type: in vivo; conditions: for Plasma Glucose at 60 minutes: i.p. glucose load
Method: as §4
A study was conducted under the same general procedures as Example 2 to determine the effect of increasing doses of insulin, with and without 100 μg of deletion peptide, on rats given an intraperitoneal glucose load. The results of plasma glucose determinations on blood drawn after 60 minutes are set out below in Table II.

[6] = tested on: GT-impaired strain of mice (YS/Wf Nctr); conditions: cited from earlier work
[7] = tested on: normal rat liver and skeletal muscle tissue; test: In vivo insulin-stimulated glucose uptake by normal rat liver and skeletal muscle tissue; conditions: administration in combination with insulin
Description: (§5) The present invention has its origins, in part, in the results of an extensive series of controlled experiments designed to study the effects of deletion peptide: (a) on in vivo glucose metabolism in normal rats; (b) on in vivo insulin-stimulated glucose uptake by normal rat liver and skeletal muscle tissue; (c) on growth of hypophysectomized rats; and (d) on in vitro glucose utilization of adipocytes isolated from normal rats.

Rhesus monkeys = test: Induced hyperglycemia in Rhesus monkeys, plasma glucose over two hours (Example 6); assay type: in vivo
Method: A study was conducted to determine the effects of deletion peptide on induced hyperglycemia in Rhesus monkeys. Blood samples were taken from normal female monkeys (in three experimental groups of three) five minutes before administration of an oral dose of 3.0 ml/kg of 0.5 g/ml glucose and intramuscular administration of either: (1) 0.5 ml/kg phosphate buffered saline (PBS), pH 7.4; (2) deletion peptide 0.1 ml/kg of 1.0 mg/ml solution in PBS; (3) deletion peptide as above combined with 0.5 ml/kg of 20 mU/ml insulin in PBS; or (4) insulin alone as above. Blood samples were then periodically withdrawn over two hours and analyzed for plasma glucose levels. Plasma glucose level data is set out in Table IV.

[8] = tested on: adipocytes isolated from normal rats; test: In vitro glucose utilization of adipocytes isolated from normal rats; assay type: cell-based
Description: as §5

hypophysectomized rats = test: Growth of hypophysectomized rats; assay type: in vivo
Description: as §5

normal rats [9] = conditions: cited from earlier work
normal rats [10] = test: In vivo glucose metabolism in normal rats
Description: as §5

[11] = cited from earlier work
[12] = after hGH administration; cited from earlier work
Sprague-Dawley rats = test: Plasma glucose after glucose load, fixed insulin and DP doses, rats (Example 4); assay type: in vivo; conditions: Rat (normal), insulin 0.001 mU/10g
Method: as §1, §2, §3

[13] = tested on: dog, hyperglycemia induced by infusing glucose; test: Portal infusion of deletion peptide in dog during induced hyperglycemia with fixed insulin levels (Example 5, second study); assay type: in vivo; conditions: basal insulin alone, glucose >200 mg/deciliter
Method: In the second study, deletion peptide was infused portally at a rate of 1 μg/kg/min during hyperglycemia induced by infusing glucose through a peripheral catheter (to maintain glucose levels in excess of 200 mg/deciliter). Basal glucagon levels were fixed and insulin levels were fixed either at basal or four-fold basal levels.

fat cells = conditions: compared with the 32-46 peptide findings; cited from earlier work
normal rats [14] = conditions: cited from earlier work; remark: listed apart in the source
rabbits = conditions: cited from earlier work

For “EEAYIPKEQKYSFLQ [DP, NH2 -Glu-Glu-Ala-Tyr-Ile-Pro-Lys-Glu-Gln-Lys-Tyr-Ser-Phe-Leu-Gln-COOH]”, the “potentiation of the hypoglycemic activity of insulin” value ([1]; all animals tested in Example 4 (mice and rats)) is given as “potentiated the hypoglycemic activity of insulin”, the “glucose utilization of insulin-stimulated fat cells” value [2] is given as “in vitro increase in glucose utilization” and the “plasma and hepatic glucose output” value (normal dog) is given as “minor transient fall”. For the same substance, the glycemic effects (normal dog; over a period of two hours) was “no glycemic effects”, the “biological activities in in vivo systems” value [3] was “preliminary evidence of insulin secretory stimulation effects, effects on levels of free fatty acids, and effects on glucose uptake by hepatic and muscle tissue” and the “Plasma Glucose at 60 minutes” value ([4]; DP 25 μg per rat with 10 mU insulin in 1.0% BSA in saline) was 7.5 ± 0.1 mmol/L. The “Plasma Glucose at 60 minutes” value ([4]; DP 25 μg per rat, 1.0% BSA in saline, no insulin, fasted rats) was 8.1 ± 0.2 mmol/L, the “Plasma Glucose at 60 minutes” value ([4]; DP 50 μg per rat with 10 mU insulin in 1.0% BSA in saline) was 5.7 ± 0.3 mmol/L and the “Plasma Glucose at 60 minutes” value ([4]; DP 50 μg per rat, 1.0% BSA in saline, no insulin, fasted rats) was 7.7 ± 0.2 mmol/L. For the same substance, the “Plasma Glucose at 60 minutes” value ([4]; DP 100 μg per rat with 10 mU insulin in 1.0% BSA in saline) was 3.5 ± 0.1 mmol/L, the “Plasma Glucose at 60 minutes” value ([4]; DP 100 μg per rat, 1.0% BSA in saline, no insulin, fasted rats) was 8.0 ± 0.4 mmol/L and the effect on glycemia ([4]; deletion peptide alone, up to 100 μg/rat) was “without effect on glycemia”. The hypoglycemic effects ([4]; increasing doses of deletion peptide with 10 mU insulin) was “progressively greater degrees of hypoglycemic effects”, the “effect on plasma glucose” value ([4]; lowest dose of deletion peptide given with a low dose of insulin in BSA) was “small significant decrease in plasma glucose” and the “Plasma Glucose at 60 minutes” value ([5]; 100 μg DP in 1.0% BSA in saline, 0 mU insulin) was 8.1 ± 0.2 mmol/L. The “Plasma Glucose at 60 minutes” value ([5]; 100 μg DP with insulin 7 mU per rat) was 7.6 ± 0.1 mmol/L, the “Plasma Glucose at 60 minutes” value ([5]; 100 μg DP with insulin 10 mU per rat) was 3.5 ± 0.1 mmol/L and the “Plasma Glucose at 60 minutes” value ([5]; 100 μg DP with insulin 20 mU per rat) was 3.1 ± 0.1 mmol/L. The “Plasma Glucose at 60 minutes” value ([5]; 100 μg DP with insulin 40 mU per rat) was 2.7 ± 0.1 mmol/L, the hypoglycemia ([5]; deletion peptide in addition to 10 mU insulin) was “significant degree of hypoglycemia” and the “potentiation of hypoglycemic effects of insulin” value ([5]; higher doses of insulin with 100 μg deletion peptide) was “potentiated”. The glucose tolerance [6] was “unspecified degree of improvement in glucose tolerance”, the “incorporation of labelled glucose into liver and skeletal muscle tissue” value [7] was “caused an alteration in the incorporation of labelled glucose” and the “potentiation of insulin effects” value (Rhesus monkeys; at all post-injection times) was “potentiated insulin effects”. The “insulin-stimulated glucose uptake by isolated adipocytes” value [8] was “no effect on insulin-stimulated glucose uptake”, the growth stimulating effect (hypophysectomized rats) was “no growth stimulating effect” and the “late increases in free fatty acids and glycemic effects” value (normal rats [9]) was “did not show either the late increases in free fatty acids nor the glycemic effects”. For the same substance, the hepatic glycogen synthesis (normal rats [10]; administered alone) was “small, insulin-like effects in increasing hepatic glycogen synthesis”, the “effects of exogenous insulin” value (normal rats [10]; concurrently administered with exogenous insulin) was “substantially augmented the effects of exogenous insulin” and the hypoglycemic effect (normal rats [10]; deletion peptide alone, normal rats) was “no hypoglycemic effect”.

For “hGH positions 1 through 15: fragment duplicating the sequence of amino acid residues at hGH positions 1 through 15 (FPTIPLSRLFDNAML; UniProt P01241 27-41, looked up, fragment)”, the “effect on glucose uptake” value ([11]; hGH amino terminal fragment) is listed as “insulin potentiating effect on glucose uptake”.

For human growth hormone [hGH], the “blood levels of glucose” value [12] is listed as “initially raise and then lower blood levels of glucose” and the free fatty acids [12] is listed as “lower free fatty acids within one hour of administration, followed by later increasing circulating fatty acids”.

insulin showed a Plasma Glucose at 60 min ([1]; Mouse db/db) of 198 ± 31 mg/dL, a Plasma Glucose at 60 min ([1]; Mouse db/m (normal)) of 102 ± 10 mg/dL and a Plasma Glucose at 60 min ([1]; Mouse ob/+ (normal)) of 99.5 ± 6 mg/dL. The Plasma Glucose at 60 min ([1]; Mouse ob/ob) was 167 ± 26 mg/dL, the “Plasma Glucose at 60 minutes” value ([4]; 10 mU insulin in 1.0% BSA in saline, 0 μg DP, fasted rats) was 8.1 ± 0.2 mmol/L and the effect on glycemia ([4]; low dose of insulin in BSA alone (10 mU, 0 DP)) was “without effect on glycemia”. The Plasma Glucose at 60 min (Sprague-Dawley rats; glucose administered orally) was 144 ± 12 mg/dL, the Plasma Glucose at 60 min (Sprague-Dawley rats; i.p. glucose) was 121 ± 28 mg/dL and the “effect on plasma glucose” value ([5]; higher doses of insulin (20, 40 mU)) was “corresponding decreases in plasma glucose”. For the same substance, the “Plasma Glucose at 60 minutes” value ([5]; insulin 7 mU per rat, 1.0% BSA in saline, no DP) was 8.0 ± 0.3 mmol/L, the “change in glycemia compared with the control group” value ([5]; insulin 7.0 mU/rat, whether or not deletion peptide was concurrently administered) was “no change in glycemia” and the “Plasma Glucose at 60 minutes” value ([5]; insulin 10 mU per rat, 1.0% BSA in saline, no DP) was 8.1 ± 0.2 mmol/L. For the same substance, the “Plasma Glucose at 60 minutes” value ([5]; insulin 20 mU per rat, 1.0% BSA in saline, no DP) was 7.0 ± 0.1 mmol/L, the “Plasma Glucose at 60 minutes” value ([5]; insulin 40 mU per rat, 1.0% BSA in saline, no DP) was 5.2 ± 0.3 mmol/L and the “effect on plasma glucose concentration” value ([5]; insulin alone, 10 mU) was “without effect on plasma glucose concentration”. For the same substance, the Plasma Glucose (Rhesus monkeys; +5 min., oral glucose + i.m. insulin 0.5 ml/kg of 20 mU/ml) was 79 ± 9 mg/dL, the Plasma Glucose (Rhesus monkeys; +15 min., oral glucose + i.m. insulin) was 72 ± 10 mg/dL and the Plasma Glucose (Rhesus monkeys; +30 min., oral glucose + i.m. insulin) was 85 ± 11 mg/dL. The Plasma Glucose (Rhesus monkeys; +45 min., oral glucose + i.m. insulin) was 88 ± 13 mg/dL, the Plasma Glucose (Rhesus monkeys; +60 min., oral glucose + i.m. insulin) was 109 ± 14 mg/dL and the Plasma Glucose (Rhesus monkeys; +120 min., oral glucose + i.m. insulin) was 108 ± 14 mg/dL. For the same substance, the Plasma Glucose (Rhesus monkeys; -5 min. (before administration), oral glucose + i.m. insulin group) was 71 ± 3 mg/dL and the hepatic glucose output [13] was “only reduced hepatic glucose output”.

In the case of “peptide duplicating residues 176 through 191: peptide duplicating hGH residues 176 through 191 (FLRIVQCRSVEGSCGF; UniProt P01241 202-217, looked up, fragment)”, the glycemic effect ([11]; hGH carboxy terminal fragment) is listed as “hyperglycemic effect”.

For “tetradecapeptide: synthetic tetradecapeptide copying hGH residues at positions 31 through 44 (FEEAYIPKEQKYSF; UniProt P01241 57-70, looked up, fragment)”, the “in vitro effects on fat cells” value (fat cells) is given as “substantially the same in vitro effects on fat cells”, the “in vivo hypoglycemic effect” value (normal rats [14]) is given as “absence of any in vivo hypoglycemic effect” and the “in vivo hypoglycemic effect” value (rabbits) is given as “absence of any in vivo hypoglycemic effect”.
